Data on 7 compounds can be found in PMC8284454, “In Vitro Profiling of Antitubercular Compounds by Rapid, Efficient, and Nondestructive Assays Using Autoluminescent Mycobacterium tuberculosis” (Antimicrobial Agents and Chemotherapy, 2021).

≈ marks a conversion by molar mass, not a printed value. Read-outs that look alike come from different tables or passages of the source. Marks after values point to notes of the source that are not given here.

For series [1], the system named is M. tuberculosis H37Rv_LuxABCDE. Put plainly: luminescence-based MBC assay (LMBCA) / time-kill. The note with it: for MBC: Mycobacterium tuberculosis; for change of MBC values over time: over 21 days, luminescence time-kill; for time and/or concentration dependence of bactericidal activity: time-kill curves up to day 21. It is filed as cell-based, Mycobacterium tuberculosis.

Series [2] has as its system M. tuberculosis H37Rv_LuxABCDE. The series can be described thus: microbe, parasite or virus in culture. It is filed as cell-based, Mycobacterium tuberculosis. The note with it: day 7, SD from three independent experiments; for MBC: Mycobacterium tuberculosis, read-out: MBC (±SD) via CFU.
Series [3] concerns M. tuberculosis H37Rv_LuxABCDE. The series can be described thus: luminescence-based MIC assay (LMICA). The following applies: 90% reduction of luminescence, 7 days, 7H12 medium; SD from three independent experiments.
The subject of series [4] is M. tuberculosis H37Rv_LuxABCDE. The series can be described thus: microplate alamarBlue assay (MABA) MIC. The note with it: 90% reduction of fluorescence, 7 days, 7H12 medium; SD from three independent experiments.
Series [5] has as its system J774-internalized M. tuberculosis (H37Rv). Put plainly: intracellular activity by luminescence (EC90). It is filed as cell-based, Mycobacterium tuberculosis. The note with it: for EC90 / inhibition at 34 µM: Mycobacterium tuberculosis, H37RV; for EC90: RLU.
Series [6] concerns macrophage-internalized M. tuberculosis. The following applies: read-out: Literature reported EC90, cited from earlier work.
The next series has as its system infected J774. The note with it: day 7, 50 μM.
Where [7] appears, read: 168 h, day 7, 99% reduction in RLU vs T0, SD from three independent experiments, read-out: MBC (±SD) via luminescence.
The mark [8] stands for this setting: 336 h, day 14, 99% reduction in RLU vs T0, read-out: MBC (±SD) by luminescence on day 14.
Setting [9] is: 504 h, day 21, 99% reduction in RLU vs T0, read-out: MBC (±SD) by luminescence on day 21.
[10] abbreviates: day 7, 99% reduction in RLU vs T0, SD from three independent experiments.
[11] abbreviates: 72 h, EC90, day 3, J774 macrophages, read-out: Intracellular activity, EC90 (±SD) Day 3.
The mark [12] stands for this setting: 120 h, EC90, day 5, J774 macrophages, read-out: Intracellular activity, EC90 (±SD) Day 5.
Where [13] appears, read: 168 h, EC90, day 7, J774 macrophages, read-out: Intracellular activity, EC90 (±SD) Day 7.

On to `CC(=O)NC[C@H]1CN(c2ccc(N3CCOCC3)c(F)c2)C(=O)O1` [Linezolid], for which the MBC was 9.6 µM (≈ 3.24 µg/mL) in series [1] (setting [7]), 7 µM (≈ 2.36 µg/mL) in series [1] (setting [8]), 6 µM (≈ 2.02 µg/mL) in series [1] (setting [9]) and over 29 µM in series [2]. The “change of MBC values over time” value in series [1] is reported as “decreased”. Further, the “time and/or concentration dependence of bactericidal activity” value (shortened to “time and/or concentration dependence”) in series [1] is on record as “mainly time dependent”. Further, in series [3], the “MIC (±SD) LMICA” value is recorded as 1.7 (0.23) μM. Also, the “MIC (±SD) MABA” value in series [4] is listed as 1.7 (0.10) μM.

For the compound `O=[N+]([O-])c1cn2c(n1)OC[C@@H](OCc1ccc(OC(F)(F)F)cc1)C2` [Pretomanid], the MBC in series [1] (setting [7]) turned out to be 0.63 µM (≈ 0.226 µg/mL); in series [1] (setting [8]) it was 12.5 µM (≈ 4.49 µg/mL); in series [1] (setting [9]), 13 µM (≈ 4.67 µg/mL); in series [2], 0.5 µM (≈ 0.18 µg/mL). Moreover, the “change of MBC values over time” value in series [1] is “increase”. Further, the “time and/or concentration dependence” value in series [1] was “both time and concentration dependent”. In addition, in series [3], the “MIC (±SD) LMICA” value is on record as 0.46 (0.01) μM. For the same compound, the “MIC (±SD) MABA” value in series [4] is 0.49 (0.02) μM.

Take Capreomycin: the “MBC (±SD) via luminescence” value in series [1] (setting [10]) is given as 1.3 (0.4) μM. The “MBC (±SD) by luminescence on day 14” value in series [1] (day 14, 99% reduction in RLU vs T0) was 6.94 (3.8) µM. Also, the “MBC (±SD) by luminescence on day 21” value in series [1] (day 21, 99% reduction in RLU vs T0) is given as 13.65 (2.34) µM. In addition, the “change of MBC values over time” value in series [1] is on record as “increase”. For the same compound, in series [2], the “MBC (±SD) via CFU” value was 1.7 (0.9) μM. The “MIC (±SD) LMICA” value in series [3] is reported as 0.53 (0.07) μM. Further, the “MIC (±SD) MABA” value in series [4] is 0.70 (0.03) μM.

Turning to `COc1c(N2C[C@@H]3CCCN[C@@H]3C2)c(F)cc2c(=O)c(C(=O)O)cn(C3CC3)c12` [Moxifloxacin], the MBC stood at 0.91 µM (≈ 0.365 µg/mL) in series [1] (setting [7]), 0.42 µM (≈ 0.169 µg/mL) in series [1] (setting [8]), 0.46 µM (≈ 0.185 µg/mL) in series [1] (setting [9]) and 0.753 µM (≈ 0.302 µg/mL) in series [2]. In series [1], the “change of MBC values over time” value is “decreased”. Besides, the “time and/or concentration dependence” value in series [1] was “both time and concentration dependent”. In series [3], the “MIC (±SD) LMICA” value was 0.13 (0.02) μM. For the same compound, the “MIC (±SD) MABA” value in series [4] is on record as 0.24 (0.04) μM.

For the compound `NCC[C@H](O)C(=O)N[C@@H]1C[C@H](N)[C@@H](O[C@H]2O[C@H](CN)[C@@H](O)[C@H](O)[C@H]2O)[C@H](O)[C@H]1O[C@H]1O[C@H](CO)[C@@H](O)[C@H](N)[C@H]1O` [Amikacin], the concentration for an effect of 90% (EC90) in series [5] (setting [11]) was over 34 µM; in series [5] (setting [12]) it was over 34 µM; in series [5] (setting [13]), over 34 µM; in series [6] (EC90, high-content imaging on day 5), over 26 µM. Also, the inhibition at 34 µM in series [5] (72 h, day 3, 34 μM, read-out: percent inhibition at the highest tested concentration, intracellular activity Day 3) was found to be 4%; in series [5] (120 h, day 5, 34 μM, read-out: percent inhibition at the highest tested concentration, intracellular activity Day 5), 34%; in series [5] (168 h, day 7, 34 μM, read-out: percent inhibition at the highest tested concentration, intracellular activity Day 7), 49%.

Take `CC(C)/N=c1\cc2n(-c3ccc(Cl)cc3)c3ccccc3nc-2cc1Nc1ccc(Cl)cc1` [Clofazimine]: the MBC in series [1] (setting [7]) was 1.81 µM (≈ 0.857 µg/mL); in series [1] (setting [8]), 0.82 µM (≈ 0.388 µg/mL); in series [1] (setting [9]) it was 1.01 µM (≈ 0.478 µg/mL); in series [2], over 4 µM. The “MBC (±SD) via luminescence” value in series [1] (setting [10]) is 1.8 (0.19) μM. For the same compound, in series [1], the “change of MBC values over time” value is on record as “decreased”. Further, in series [1], the “time and/or concentration dependence” value was “both time and concentration dependent”. The EC90 in series [5] (setting [11]) is 19 µM; in series [5] (setting [12]) it was 6.69 µM; in series [5] (setting [13]) it was 3.7 µM; in series [6] (EC90) it was about 2.1 µM. The “onset of growth inhibition of internalized M. tuberculosis” value in series [5] (early = EC90 obtainable by day 3, late = EC90 obtainable by day 5 or later) is “early growth inhibition”. The “Toxicity against infected J774, percent inhibition at the highest tested concentration” value in the series with infected J774 is recorded as 50 (45)* percent. For the same compound, the “MIC (±SD) MABA” value in series [4] is listed as 0.014 (0.02) μM.

On to `[H]/N=C(/N)N[C@H]1[C@H](O)[C@@H](O)[C@H](O[C@@H]2O[C@@H](C)[C@](O)(C=O)[C@H]2O[C@@H]2O[C@@H](CO)[C@H](O)[C@@H](O)[C@@H]2NC)[C@@H](N/C(N)=N\[H])[C@@H]1O` [Streptomycin], for which the MBC in series [1] (setting [7]) was found to be 0.3 µM (≈ 0.174 µg/mL); in series [1] (setting [8]), 0.5 µM (≈ 0.291 µg/mL); in series [1] (setting [9]), 0.9 µM (≈ 0.523 µg/mL); in series [2], 0.37 µM (≈ 0.215 µg/mL). The “time and/or concentration dependence” value in series [1] was “both time and concentration dependent”. In addition, the “MIC (±SD) LMICA” value in series [3] was 0.12 (0.04) μM. For the same compound, the “MIC (±SD) MABA” value in series [4] is 0.12 (0.02) μM.
